We go through one compound from PMC7151078, “A Novel NMDA Receptor Antagonist Protects against Cognitive Decline Presented by Senescent Mice” (Pharmaceutics, 2020).

For one data set, the target named is T1, CYP2C9 (Homo sapiens, UniProt P11712).
T1 construct: host or cells: insect cell microsomes
The data set can be described thus: Cytochrome inhibition, fluorescent detection (7-MFC substrate). The class given is in vitro ADME. Conditions: recombinant human CYP2C9. The procedure: (§1) To screen the inhibition potential of the compounds, recombinant human cytochrome P450 enzymes (CYP1A2, CYP2C9, CYP2C19, CYP2D6, and CYP3A4) and probe substrates were used with the fluorescent detection method. Incubations were conducted in 200-µL volume 96 well microtiter plates (COSTAR 3915). Addition of cofactor-buffer mixture (KH2PO4 buffer, 1.3 mM NADP+, 3.3 mM MgCl2, 3.3 mM Glucose-6-phosphate and 0.4 U/mL Glucose-6-phosphate Dehydrogenase), supersomes control, standard inhibitors (Furafyline, Tranylzypromine, Ketoconazole, Sulfaphenazole, and Quinidine; from Sigma Aldrich), and test compounds to plates were carried out using a a liquid handling station (Zephyr Caliper). The plate was then pre-incubated at 37 °C for 5 min, and the reaction initiated by the addition of pre-warmed enzyme/substrate (E/S) mix. […] Fluorescence per well was measured using a fluorescence plate reader (Tecan M1000 pro), and the percentage of inhibition was calculated.

In data set [1] the test system is SAMR1 and SAMP8 mice. Description: Hippocampal protein levels by Western blotting. The class given is in vivo, mouse. Conditions: hippocampus. The procedure:
Male SAMR1 and SAMP8 mice (n = 41) with 20-weeks-old were used to carry out cognitive and molecular analysis. The animals were randomly divided into four groups: SAMR1 control (SR1 Ct) group (n = 11), SAMP8 control (SP8 Ct) group (n = 8), SAMR1 treated with RL-208 (SR1 RL-208 (5 mg/Kg)) group (n = 10) and SAMP8 treated with RL-208 (SP8 RL-208 (5 mg/Kg)) group (n = 12). Animals had free access to food and water, under standard temperature conditions (22±2 °C) and 12h:12h light-dark cycles (300 lux/0 lux). RL-208, (3,4,8,9-tetramethyltetracyclo[4.4.0.0^3,9.0^4,8]dec-1-yl)-methylamine hydrochloride, (5 mg/kg/day) was administered through drinking water for four weeks before starting the cognitive test. RL-208 was administered up to euthanasia (Figure 1A). Water consumption was controlled each week for each cage and strain. Afterwards, RL-208 concentration was adjusted accordingly to reach the optimal dose for each cage. Three days after the behavioural and cognitive tests, mice were euthanized by cervical dislocation. Brains were immediately removed from the skull. The hippocampus and cortex were then isolated and frozen in powdered dry ice. They were maintained at −80 °C for further use. Tissue samples were homogenized in lysis buffer containing phosphatase and protease inhibitors (Cocktail II, Sigma). Total protein levels were obtained, and protein concentration was determined by the method of Bradford. For Western blotting (WB), aliquots of 15 μg of hippocampal protein extraction per sample were used. Protein samples were separated by Sodium dodecyl sulphate-Polyacrylamide gel electrophoresis (SDS-PAGE) (8–20%) and transferred onto Polyvinylidene difluoride (PVDF) membranes (Millipore). Afterwards, membranes were blocked in 5% non-fat milk in Tris-buffered saline (TBS) solution containing 0.1% Tween 20 TBS (TBS-T) for 1 hour at room temperature, followed by overnight incubation at a 4 °C with the primary antibodies listed in Table S1. Then, membranes were washed and incubated with secondary antibodies for 1 hour at room temperature. Immunoreactive proteins were viewed with the chemiluminescence-based detection kit, following the manufacturer’s protocol (ECL Kit, Millipore), and digital images were acquired using ChemiDoc XRS+ System (BioRad). Semi-quantitative analyses were performed using ImageLab software (BioRad), and results were expressed in arbitrary units (AU), considering control protein levels as 100%. Protein loading was routinely monitored by immunodetection of Glyceraldehyde-3-phosphate dehydrogenase (GAPDH).

Data set [2] concerns SAMR1 and SAMP8 mice. The data set can be described thus: proBDNF and mBDNF protein levels in the hippocampus (ELISA). Format: in vivo, mouse. The procedure: Male SAMR1 and SAMP8 mice (n = 41) with 20-weeks-old were used to carry out cognitive and molecular analysis. The animals were randomly divided into four groups: SAMR1 control (SR1 Ct) group (n = 11), SAMP8 control (SP8 Ct) group (n = 8), SAMR1 treated with RL-208 (SR1 RL-208 (5 mg/Kg)) group (n = 10) and SAMP8 treated with RL-208 (SP8 RL-208 (5 mg/Kg)) group (n = 12). Animals had free access to food and water, under standard temperature conditions (22±2 °C) and 12h:12h light-dark cycles (300 lux/0 lux). RL-208, (3,4,8,9-tetramethyltetracyclo[4.4.0.0^3,9.0^4,8]dec-1-yl)-methylamine hydrochloride, (5 mg/kg/day) was administered through drinking water for four weeks before starting the cognitive test. RL-208 was administered up to euthanasia (Figure 1A). Water consumption was controlled each week for each cage and strain. Afterwards, RL-208 concentration was adjusted accordingly to reach the optimal dose for each cage. Three days after the behavioural and cognitive tests, mice were euthanized by cervical dislocation. Brains were immediately removed from the skull. The hippocampus and cortex were then isolated and frozen in powdered dry ice. They were maintained at −80 °C for further use. Tissue samples were homogenized in lysis buffer containing phosphatase and protease inhibitors (Cocktail II, Sigma). Total protein levels were obtained, and protein concentration was determined by the method of Bradford. The hippocampal determination of pro-Brain-derived neurotrophic factor (proBDNF) and mature brain-derived neurotrophic factor (mBDNF) protein levels was performed using the enzyme-linked immunosorbent assay (ELISA) kit (Biosensis) according to the manufacturer’s instructions.
On the technique in general: An ELISA detects its analyte on a solid surface through an enzyme-linked reagent.

A further data set addresses T2, CYP2D6 (Homo sapiens, UniProt P10635).
T2 construct: host or cells: insect cell microsomes
Description: Cytochrome inhibition, fluorescent detection (AMMC substrate). The class given is in vitro ADME. Conditions: recombinant human CYP2D6. As to the method: as §1

T2 sequence (P10635 whole entry): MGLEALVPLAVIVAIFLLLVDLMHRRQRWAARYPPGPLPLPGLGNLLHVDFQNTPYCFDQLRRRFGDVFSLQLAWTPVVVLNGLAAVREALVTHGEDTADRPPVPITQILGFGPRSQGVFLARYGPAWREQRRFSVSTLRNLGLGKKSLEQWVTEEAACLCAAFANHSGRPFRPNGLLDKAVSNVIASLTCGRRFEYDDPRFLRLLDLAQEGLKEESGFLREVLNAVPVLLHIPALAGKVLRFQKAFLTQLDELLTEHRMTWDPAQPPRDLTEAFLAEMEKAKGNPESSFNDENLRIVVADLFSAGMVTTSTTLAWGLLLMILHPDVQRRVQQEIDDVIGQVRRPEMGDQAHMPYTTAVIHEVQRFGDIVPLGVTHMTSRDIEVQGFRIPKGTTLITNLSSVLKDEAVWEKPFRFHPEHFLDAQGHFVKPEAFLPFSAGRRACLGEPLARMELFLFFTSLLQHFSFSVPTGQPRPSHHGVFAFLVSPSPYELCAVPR
T1 sequence (P11712 whole entry): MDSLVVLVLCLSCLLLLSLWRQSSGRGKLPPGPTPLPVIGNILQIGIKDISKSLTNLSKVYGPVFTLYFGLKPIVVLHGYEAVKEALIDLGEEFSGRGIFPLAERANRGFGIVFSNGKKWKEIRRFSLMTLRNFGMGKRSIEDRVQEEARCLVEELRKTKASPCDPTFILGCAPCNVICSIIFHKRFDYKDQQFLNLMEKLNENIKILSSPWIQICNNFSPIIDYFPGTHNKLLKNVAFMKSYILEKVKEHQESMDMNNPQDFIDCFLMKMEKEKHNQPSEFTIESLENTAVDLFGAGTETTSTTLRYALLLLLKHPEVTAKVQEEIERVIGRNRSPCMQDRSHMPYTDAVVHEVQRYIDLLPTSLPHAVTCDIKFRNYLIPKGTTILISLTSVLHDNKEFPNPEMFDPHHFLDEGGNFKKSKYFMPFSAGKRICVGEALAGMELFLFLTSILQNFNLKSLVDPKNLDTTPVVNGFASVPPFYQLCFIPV

Turning to `CC12CC3CC1(C)C1(C)CC3(CN)CC21C.Cl` [RL-208, (3,4,8,9-tetramethyltetracyclo [4.4.0.0^3,9.0^4,8]dec-1-yl)methylamine hydrochloride], the CYP2C9 inhibition at CYP2C9 amounted to 12 ± 2%. For the same compound, in the data set on SAMR1 and SAMP8 mice [1] (RL-208 treated mice), the PSD95 protein levels result is reported as “augmented but did not reach significance in SP8 mice” and the “Synaptophysin (SYN) protein levels” value is “significant increase”. Besides, in the data set on SAMR1 and SAMP8 mice [1] (SAMP8), the ADAM10 protein levels result is “prevented the loss”. The SNAP25 protein levels result in the data set with SAMR1 and SAMP8 mice [1] (SP8 RL-208) is “significant-high”. Moreover, in the data set with SAMR1 and SAMP8 mice [1] (SP8 RL-208 vs control group), the “CDK5 activation (p-CDK5/CDK5 ratio)” value is recorded as “significantly reduced” and the p25/p35 ratio result is listed as “significantly reduced”. Also, in the data set with SAMR1 and SAMP8 mice [1] (SP8 mice, not in SR1), the GPX1 protein levels result is “increased, in a significant way” and the SOD1 protein levels entry is recorded as “increased, in a significant way”. Also, in the data set on SAMR1 and SAMP8 mice [1] (SP8 strain, not in SR1), the “120BPD (Spectrin breakdown product)” value is listed as “reduced”, the Calpain-1 protein levels entry is “reduced” and the Caspase-3 protein levels result is given as “reduced”. For the same compound, the TrkB-FL protein levels entry with SAMR1 and SAMP8 mice [1] (both SR1 and SP8) is listed as “increased significantly”. Moreover, the “p-NMDAR (Tyr1472) protein levels” value in the data set on SAMR1 and SAMP8 mice [1] (both strains) is recorded as “increased in a significant way”. The “Tau phosphorylation (Ser396)” value in the data set on SAMR1 and SAMP8 mice [1] (both treated mice groups) is given as “significant reduction”. In the data set with SAMR1 and SAMP8 mice [1] (neither in SR1 nor in SP8), the NMDAR2A protein levels entry is listed as “did not produce significant differences”. Further, the TrkB-ICD protein levels result in the data set on SAMR1 and SAMP8 mice [1] (treated mice) is reported as “reduced”. The “mature BDNF protein levels” value in the data set with SAMR1 and SAMP8 mice [2] (RL-208 treated mice vs control groups) is “significant augment”. Also, the proBDNF protein levels result in the data set with SAMR1 and SAMP8 mice [2] (SP8 treated vs control) is recorded as “significant reduction”. Also, the “proBDNF protein levels (differences)” value with SAMR1 and SAMP8 mice [2] (SR1 strain) was “not significant”. Moreover, on CYP2D6, the CYP2D6 inhibition was 10 ± 3%.
